Reference: US20220000117A1, “METHOD FOR CONTROLLING DISEASES IN SMALL GRAIN CEREALS, SEED OF SMALL GRAIN CEREALS, AND METHOD FOR SUPPRESSING LODGING DAMAGE IN SMALL GRAIN CEREALS” (KUMIAI CHEMICAL INDUSTRY CO., LTD., priority 2019, published 2022)

Experiments:
powdery mildew [1] = experiment: Test Example 5: control test of wheat powdery mildew, field, wheat variety Haruyutaka; assay type: in vivo, Blumeria graminis; details: for Degree of Disease Occurrence / Disease Leaf Rate (%): leaves just below flag leaves, 85 days after seeding
Method: (§1) Degree of Disease Occurrence=Σ(Index×Number of Leaves of Index)/(4×Number of Investigated Leaves)×100 (1)
Seed of wheat (variety: Haruyutaka) sterilized in advance with commercial Benlate T wettable powder 20 (“Benlate” is a registered trademark) was used. In Examples 12, 13, and 14, seed having a mass of 1 kg was mixed into 50 ml of suspension water containing 2.5 g or 1.25 g of dichlobentiazox or 50 ml of suspension water containing 2.5 g of isotianil, air-dried, and then, stripe-sown in a field with a furrow width of 30 cm and a ratio of 100 kg/ha (300 seeds/m^2). Moreover, in Comparative Example 14, seed having a mass of 1 kg was mixed into 50 ml of suspension water containing 2.5 g of tiadinil (commercial V-GET flowable was used, “V-GET” is a registered trademark), air-dried, and then, stripe-sown in a field with a furrow width of 30 cm and a ratio of 100 kg/ha (300 seeds/m^2). The presence or absence of disease occurrence and a lesion area ratio of powdery mildew in leaves just below hag leaves (next leaves) of 30 stems were investigated 85 days after seeding by according to the criteria in Table 1, and a disease leaf rate and the degree of disease occurrence were calculated by the above calculation formula(1).

powdery mildew [2] = experiment: Test Example 2: control test of wheat powdery mildew, pot in greenhouse, inoculated, wheat variety Norin No. 61; assay type: in vivo, Blumeria graminis; details: for Degree of Disease Occurrence: inoculated day 49, first leaf, 59 days after seeding
Method: as §1
(§2) Seed having a mass of 1 kg of wheat (variety: Norin No. 61) was mixed into 100 ml of suspension water containing 5 g or 0.5 g of dichlobentiazox or isotianil (commercial Routine flowable was used, “Routine” is a registered trademark) and air-dried, and then, 15 seeds were sown in a plastic pot of 9 cm×9 cm containing horticultural soil and managed in a greenhouse. The number of emerged seeds was investigated 10 days after seeding, and an emergence rate was calculated (Examples 2 to 5). On day 49 after seeding, conidiospores of powdery mildew were sifted over leaves of wheat seedlings and inoculated onto the leaves, a lesion area ratio of powdery mildew in a first leaf was investigated 59 days after seeding according to the criteria in Table 1, and the degree of disease occurrence was calculated by the above calculation formula (1).

[3] = system: wheat (variety: Norin No. 61); experiment: Test Example 2: emergence rate of treated wheat seed; assay type: in vivo; details: 10 days after seeding
Method: as §2

[4] = system: wheat (variety: Haruyutaka); experiment: Test Example 6: evaluation test of shortening of wheat (culm length, seed yield), field; assay type: in vivo
septoria leaf blotch = experiment: Test Example 7: control test of septoria leaf blotch of wheat, field, wheat variety TRAPEZ; assay type: in vivo, Septoria tritici; details: for Degree of Disease Occurrence: flag leaves, 219 days after seeding
Method: as §1
Seed of wheat (variety: TRAPEZ) was used. On seed having a mass of 1 kg, 20 ml of suspension water containing 0.5 g or 5 g of dichlobentiazox or isotianil was sprayed. In Examples 16, 17, and 18, the seed treated with the chemical was stripe-sown with a ratio of 100 kg/ha. In contrast, in Comparative Example 17, seed which had not treated with dichlobentiazox or isotianil was sown in a field in the same manner, and a spray solution corresponding to that obtained by suspending 750 g of chlomthalonil (commercial FUNGISTOP was used, “FUNGISTOP” is a registered trademark) in 200 liters of water per 1 ha was sprayed on foliage of wheat 154 days and 184 days after seeding. The severity of disease occurrence of septoria leaf blotch in flag leaves of 25 stems was investigated 219 days after seeding according to the criteria in Table 1, and the degree of disease occurrence was calculated by the above calculation formula (1).

wheat (variety: Apache) = experiment: Test Example 8: emergence rate of wheat seed; assay type: in vivo
Method: Seed having a mass of 1 kg of wheat (variety: Apache) was mixed into 100 ml of suspension water containing from 0.5 g or 5 g of the 3,4-dichloroisothiazole derivative of the compound (6) or (3) (synthesis was performed in accordance with a known method, formulated 10% wettable powder was used) and air-dried, and then, 12 seeds were sown in a plastic cup having a diameter of 6 cm containing river sand and managed in a greenhouse. The number of emerged seeds was investigated 12 days after seeding, and an emergence rate was calculated. In Comparative Examples 19 to 22, 20 ml of suspension water of an active ingredient, which had been adjusted to have a concentration shown in Table 9, was sprayed in a frame of 45 cm×45 cm in which a pot of wheat seedlings was placed (corresponding to 1000 L/ha) 12 days after seeding. A spore suspension in which conidiospores of septoria leaf blotch are suspended were sprayed and inoculated on leaves of wheat seedlings 12 days after seeding (after the sprayed liquid was dried in the case of Comparative Examples), a lesion area ratio of septoria leaf blotch in a second leaf was investigated 31 days after seeding according to the criteria in Table 1, and the degree of disease occurrence was calculated by the above calculation formula (1).

[5] = Seed Treatment 1.25 g/Seed 1 kg (printed: 250 g/ha)
[6] = Seed Treatment 2.5 g/Seed 1 kg (250 g/ha)
[7] = Seed Treatment 0.5 g/Seed 1 kg (50 g/ha)
[8] = Seed Treatment 5 g/Seed 1 kg (500 g/ha)
[9] = Foliage Treatment group, spray 50 ppm (50 g/ha) 12 days after seeding, emergence counted 12 days after seeding
[10] = Foliage Treatment group, spray 500 ppm (500 g/ha) 12 days after seeding, emergence counted 12 days after seeding
[11] = Seed Treatment 0.5 g/Seed 1 kg, 12 days after seeding
[12] = Seed Treatment 5 g/Seed 1 kg (500 g/ha), 12 days after seeding

Compound: O=S1(=O)N=C(OCc2snc(Cl)c2Cl)c2ccccc21 [Compound (1), Dichlobentiazox]
- Degree of Disease Occurrence (powdery mildew [1]; [5]): 0.8
- Disease Leaf Rate (%) (powdery mildew [1]; [5]): 4.4%
- Degree of Disease Occurrence (powdery mildew [1]; [6]): 0.4
- Disease Leaf Rate (%) (powdery mildew [1]; [6]): 2.2%
- disease occurrence of powdery mildew, seed treatment compared with seed treatment with tiadinil (powdery mildew [1]; seed treatment): suppresses the disease occurrence of powdery mildew lower
- Degree of Disease Occurrence (powdery mildew [2]; [7]): 10.7
- Degree of Disease Occurrence (powdery mildew [2]; [8]): 0.0
- disease occurrence under artificial inoculation of powdery mildew (powdery mildew [2]; seed treatment): the disease occurrence was suppressed
- Emergence Rate (%) [3, 7]: 100%
- Emergence Rate (%) [3, 8]: 96%
- Culm Length (cm) ([4]; Dichlobentiazox Seed Treatment 5 g/Seed 1 kg plus Propiconazole foliage spray 120 g/ha four times, harvested 106 days after seeding): 80.1 cm
- Seed Yield ([4]; Dichlobentiazox Seed Treatment 5 g/Seed 1 kg plus Propiconazole foliage spray 120 g/ha four times, wheat in 3 m2, 106 days after seeding): 1015 g
- culm length in harvesting time, compared with no seed treatment ([4]; seed treatment): slightly shorter
- yield amount of wheat grains, compared with no seed treatment ([4]; seed treatment): slightly higher
- Degree of Disease Occurrence (septoria leaf blotch; [7]): 2.8
- Degree of Disease Occurrence (septoria leaf blotch; [8]): 1.9
- disease occurrence of septoria leaf blotch, seed treatment compared with foliage spraying of chlorothalonil (septoria leaf blotch; seed treatment): more suppressed

Compound: OCc1snc(Cl)c1Cl [Compound (3)]
- Emergence Rate (%) (wheat (variety: Apache); [9]): 97.2%
- Emergence Rate (%) (wheat (variety: Apache); [10]): 97.2%
- Emergence Rate (%) (wheat (variety: Apache); [11]): 97.2%
- Emergence Rate (%) (wheat (variety: Apache); [12]): 86.1%

Compound: O=C(O)c1snc(Cl)c1Cl [Compound (6)]
- Emergence Rate (%) (wheat (variety: Apache); [9]): 97.2%
- Emergence Rate (%) (wheat (variety: Apache); [10]): 94.4%
- Emergence Rate (%) (wheat (variety: Apache); [11]): 88.9%
- Emergence Rate (%) (wheat (variety: Apache); [12]): 88.9%
